The values that follow come from ChEMBL document CHEMBL1123992, “Benzo[1,2-c:5,4-c']dipyrazoles: non-xanthine adenosine antagonists” (J Med Chem, 1988).

For assay [1], the species on record is Cavia porcellus. Nature of the assay: Reversal of spasmogen-induced contraction of guinea pig cylindrical tracheal segments induced by 5-hydroxytryptamine (2x 10e-6 M). The format is functional. As to conditions: Trachea, read-out: ED50 (the source's name).
The species named for assay [2] is Cavia porcellus. Kind of assay: Reversal of spasmogen-induced contraction of guinea pig cylindrical tracheal segments induced by histamine (1 x 10e -5 M). As to conditions: Trachea, read-out: ED50 (the source's name). In kind it is functional.
The target of assay [3] is T1, Adenosine receptor A1 (Rattus norvegicus, UniProt P25099).
T1 sequence (P25099 whole entry): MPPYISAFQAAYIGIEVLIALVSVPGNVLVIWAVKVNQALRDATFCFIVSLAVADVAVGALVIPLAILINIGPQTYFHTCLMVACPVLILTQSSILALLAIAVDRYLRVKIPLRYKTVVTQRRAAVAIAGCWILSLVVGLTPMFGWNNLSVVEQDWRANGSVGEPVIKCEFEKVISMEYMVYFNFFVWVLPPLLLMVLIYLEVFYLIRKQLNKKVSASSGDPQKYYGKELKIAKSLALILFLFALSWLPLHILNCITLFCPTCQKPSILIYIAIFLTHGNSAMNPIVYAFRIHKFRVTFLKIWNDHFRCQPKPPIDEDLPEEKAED
Kind of assay: In vitro binding affinity to Adenosine A1 receptor of rat cerebral cortical membranes using 1 nM [3H]PIA.

In assay [4] the target is Adenosine A2 receptor (Homo sapiens, UniProt P29275+P29274). Kind of assay: In vitro binding affinity to Adenosine A2 receptor of human platelets by inhibition of NECA-stimulated adenylate cyclase. The format is functional.
Assay [5] is filed under the species Cavia porcellus. Kind of assay: Reversal of spasmogen-induced contraction of guinea pig cylindrical tracheal segments induced by acetylcholine (1*10e-5 M). In kind it is functional. As to conditions: Trachea, read-out: ED50 (the source's name).
The species named for assay [6] is Cavia porcellus. Nature of the assay: Reversal of spasmogen-induced contraction of guinea pig cylindrical tracheal segments induced by acetylcholine (1 x 10e -5 M). The format is functional. As to conditions: Trachea, read-out: ED50 (the source's name).
For assay [7], the species on record is Cavia porcellus. Kind of assay: Reversal of spasmogen-induced contraction of guinea pig cylindrical tracheal segments induced by histamine (1x […] -5 M). The format is functional. The following applies: Trachea, read-out: ED50 (the source's name).
For assay [8], the target named is Adenosine A2 receptor (Rattus norvegicus, UniProt P29276+P30543). Nature of the assay: Inhibition of adenosine stimulated accumulation of cyclic AMP at Adenosine A2 receptor of VA13 fibroblasts of rat. The format is functional.
Assay [9] deals with T1, Adenosine receptor A1. Nature of the assay: Binding of 1 nM [3H]CHA to Adenosine A1 receptor of rat cerebral cortical membranes. In kind it is cell membranes, Membrane.
The species entered for assay [10] is Cavia porcellus. Kind of assay: Reversal of spasmogen-induced contraction of guinea pig cylindrical tracheal segments induced by Carbachol (7.4 x 10e -7 M). In kind it is functional. The following applies: Trachea, read-out: ED50 (the source's name).
Assay [11] addresses Adenosine A2 receptor (Cavia porcellus). Nature of the assay: Inhibition of 2-CADO-stimulated adenylate cyclase at Adenosine A2 receptor in guinea pig cerebral cortical slices.
Assay [12] is filed under the species Cavia porcellus. Kind of assay: Reversal of spasmogen-induced contraction of guinea pig cylindrical tracheal segments induced by Carbachol (7.4x 10e-7 M). In kind it is functional. As to conditions: Trachea, read-out: ED50 (the source's name).

Usually Ki stands for the dissociation constant of the complex between target and ligand, obtained from inhibition or displacement. Lower therefore signals tighter binding. With `Cc1n[nH]c2cc3[nH]nc(C)c3cc12`, the EC50 turned out to be 2 µM in the assay filed under Cavia porcellus [1], 1.4 µM in the assay listed under Cavia porcellus [2] and 4 µM in the assay filed under Cavia porcellus [5]. Also, the values for the Ki at Adenosine receptor A1 [3] and at Adenosine A2 receptor [4] were 8 µM and 25.6 µM, respectively.
On to `Cc1n[nH]c2c(C)c3[nH]nc(C)c3cc12`, for which the figures for the EC50 in the assay listed under Cavia porcellus [1], in the assay listed under Cavia porcellus [6] and in the assay filed under Cavia porcellus [7] were 4.6 µM, 8.5 µM and 24 µM, respectively. Besides, the figures for the Ki on Adenosine receptor A1 [3] and on Adenosine A2 receptor [4] were 1.2 µM and 4.8 µM, respectively.
Take `Cn1c(=O)[nH]c2[nH]cnc2c1=O` [1-METHYLXANTHINE]: the Ki came to 6.6 µM at Adenosine A2 receptor [8] and 9 µM at Adenosine receptor A1 [9].
With `CCn1nc(C)c2cc3c(C)nn(CC)c3cc21`, the values for the EC50 in the assay filed under Cavia porcellus [1], in the assay listed under Cavia porcellus [10] and in the assay filed under Cavia porcellus [7] were 1.3 µM, 11 µM and 5.2 µM, respectively. In addition, the inhibitory constant (Ki) at Adenosine receptor A1 [3] worked out at 27 µM; at Adenosine A2 receptor [4], 56 µM.
Regarding `CCn1c(=O)c2nc[nH]c2n(CC)c1=O`, the values for the Ki (in assay [11]; on Adenosine A2 receptor [8]) were 3 µM and 1.2 µM, respectively.
With `Cc1nn(C)c2c(C)c3c(cc12)c(C)nn3C`, the EC50 is 20 µM in the assay filed under Cavia porcellus [1], 9.6 µM in the assay listed under Cavia porcellus [10] and 38 µM in the assay filed under Cavia porcellus [7]. The Ki on Adenosine receptor A1 [3] amounted to 54 µM; at Adenosine A2 receptor [4], 170 µM.
For the compound `O=c1[nH]c(=O)c2nc[nH]c2[nH]1` [XANTHINE], on Adenosine A2 receptor [8], the Ki is 130 µM.
Turning to `Cn1c(=O)c2[nH]cnc2n(C)c1=O` [AMINOPHYLLINE], the EC50 was 21 µM in the assay filed under Cavia porcellus [1], 57 µM in the assay filed under Cavia porcellus [6] and 42 µM in the assay listed under Cavia porcellus [7].
Turning to `CCCn1nc(C)c2cc3c(C)nn(CCC)c3cc21`, the EC50 came out at 13 µM in the assay filed under Cavia porcellus [1], 69 µM in the assay filed under Cavia porcellus [10] and 41 µM in the assay filed under Cavia porcellus [7]. Besides, the Ki on Adenosine receptor A1 [3] stood at 10.5 µM; at Adenosine A2 receptor [4], 32 µM.
As to `Cc1n[nH]c2c(Br)c3[nH]nc(C)c3cc12`, the values for the EC50 in the assay filed under Cavia porcellus [1], in the assay filed under Cavia porcellus [2] and in the assay listed under Cavia porcellus [6] were 0.9 µM, 3 µM and 2 µM, respectively.
With `Cc1nn(C)c2cc3c(cc12)c(C)nn3C`, the EC50 in the assay filed under Cavia porcellus [1] came to 17 µM; in the assay listed under Cavia porcellus [7], 75 µM. For the same compound, the Ki on Adenosine receptor A1 [3] is greater than 100 µM; at Adenosine A2 receptor [4], 80 µM.
For the compound `CCn1nc(C)c2cc3c(C)nn(CC)c3c(C)c21`, the Ki on Adenosine receptor A1 [3] came to 20 µM; at Adenosine A2 receptor [4], 53 µM. Further, the EC50 in the assay filed under Cavia porcellus [12] was 1 µM; in the assay listed under Cavia porcellus [6], 4.3 µM; in the assay listed under Cavia porcellus [7], 4.1 µM.
For `Cc1n[nH]c2c([N+](=O)[O-])c3[nH]nc(C)c3cc12`, the EC50 in the assay filed under Cavia porcellus [1] is 1.5 µM; in the assay listed under Cavia porcellus [6] it was 25 µM; in the assay listed under Cavia porcellus [7], 6.4 µM. Besides, the results for the Ki at Adenosine receptor A1 [3] and on Adenosine A2 receptor [4] were 1.9 µM and 14.4 µM, respectively.
